Experimental data from patent publication US20100056615A1, “USE OF TRICYCLIC DITERPENES AND THEIR DERIVATIVES FOR THE TREATMENT, CO-TREATMENT OR PREVENTION OF INFLAMMATORY DISORDERS AND/OR JOINT DISORDERS” (priority 2006, published 2010).

Columns and labels:
Test in all cases: Gene expression in human chondrocyte cells (SW1353), quantitative real-time PCR
Assay type in all cases: cell-based
Details in all cases: 12.5 μM compound, SW1353 chondrocytes, IL-1β treated
[1] = system: Human collagen II
Method: (§1) The cells were treated with IL-1β, which is one of the natural mediators that induce cartilage breakdown and is detected in substantial amounts in osteoarthritic cartilage tissues and cells derived thereof. Treatment of cells with IL-1β triggers the expression of genes that are involved in catabolic events, such as MMPs.
(§2) Chondrocytes (SW1353; purchased from the […] [ATCC]) were grown in cell culture medium according to the instructions from ATCC. For experimental treatments, cells were seeded into 6-well plates and cultured for two days until they reached confluence. Total cellular RNA was extracted from cultured cells and reverse-transcribed as described by Richard et al. Mol. Nutr. […] Expression levels of distinct genes were determined by quantitative real-time PCR as described in Richard et al. Mol. Nutr.

[2] = system: Human MMP-13
Method: as §1, §2

[3] = system: Aggrecan
Method: as §1, §2

[4] = system: Human MMP-1
Method: as §1, §2

[5] = system: Human MMP-3
Method: as §1, with “MMPs. Also, treatment of the cells with IL-1β reduces the collagen expression levels (compared to untreated cells)” for “MMPs.”
Chondrocytes (SW1353; purchased from the […] [ATCC]) were grown in cell culture medium according to the instructions from ATCC. For experimental treatments, cells were seeded into 6-well plates and cultured for two days until they reached confluence. Total cellular RNA was extracted from cultured cells and reverse-transcribed as described by Richard et al. Mol. Nutr. Food Res. 49, 431-442, 2005. Expression levels of distinct genes were determined by quantitative real-time PCR as described in Richard et al. Mol. Nutr. Food Res. 49, 431-442, 2005.

[6] = system: Human collagen I
Method: as §1, §2

| SMILES | Human collagen II gene expression level relative to cells treated without the compound [1] [%] | Human MMP-13 gene expression level relative to cells treated without the compound [2] [%] | Aggrecan gene expression level relative to cells treated without the compound [3] [%] | Human MMP-1 gene expression level relative to cells treated without the compound [4] [%] | Human MMP-3 gene expression level relative to cells treated without the compound [5] [%] | Human collagen I gene expression level relative to cells treated without the compound [6] [%] |
| --- | --- | --- | --- | --- | --- | --- |
| COc1c(C(C)C)cc2c(c1O)[C@@]1(C(=O)O)CCCC(C)(C)[C@@H]1CC2 [Carnosic acid-12-methyl ether (XII), Carnosic acid 12-methylether] | 139 | 60 | 123 | 94 | 69 | – |
| CC(C)c1cc2c(c(O)c1O)C1=C(CC2)C(C)(C)CCC1=O [Sageone (VII), Sageone] | – | 36 | 152 | 3 | 112 | 120 |
